The text below walks through data of publication PMC11596392, “Enhanced Antibacterial, Anti-Inflammatory, and Antibiofilm Activities of Tryptophan-Substituted Peptides Derived from Cecropin A-Melittin Hybrid Peptide BP100” (Molecules, 2024).

≈ marks a conversion by molar mass, not a printed value. Where no end group is shown, it is not given here.

For experiment [1], the system named is S. epidermidis (KCTC 1917). In kind it is cell-based, Staphylococcus epidermidis. The note with it: broth microdilution in MHB, 37 °C, 24 h, 100% inhibition of growth. How it is done:
(§1) The antibacterial efficacy of the synthesized peptides was evaluated by determining the minimal inhibitory concentrations (MICs) against six standard bacterial strains and five drug-resistant bacterial strains using the Clinical and Laboratory Standards Institute (CLSI) microdilution method. Melittin served as the positive control.
(§2) The minimal inhibitory concentrations (MICs) of the peptides against bacterial strains were determined using a modified broth-microdilution method in accordance with the National Committee for Clinical Laboratory Standards (NCCLS) guidelines. Overnight cultures were diluted in cation-adjusted Mueller–Hinton Broth (MHB) to achieve an inoculum density of 2 × 10^6 CFU/mL. A two-fold serial dilution of the peptide solution (100 μL) was introduced into microtiter plates, followed by the addition of 100 μL of bacterial suspension. The plates were then incubated at 37 °C for 24 h to determine the MICs. Wells containing only culture media served as negative controls, while those with added bacteria functioned as positive controls. The MIC, expressed in μM, was defined as the lowest peptide concentration that prevented visible bacterial growth. This protocol was also employed to determine MICs in the presence of physiological salts (150 mM of NaCl, 4.5 mM of KCl, 6 μM of NH4Cl, 1 mM of MgCl2, 2.5 mM of CaCl2, and 4 μM of FeCl3) and 20% human serum to assess the peptides’ efficacy under conditions more closely resembling physiological environments. All experiments were conducted in triplicate and repeated three times independently to ensure reproducibility and statistical significance of the results.
In general terms: Dilution methods test growth across graded concentrations, often in twofold steps.

In the next experiment the test system is VREF (ATCC 51559). In kind it is cell-based, vancomycin-resistant Enterococcus faecium. Conditions: broth microdilution in MHB, 37 °C, 24 h, 100% inhibition of growth. How it is done: as §1, §2
Experiment [2] relates to S. typhimurium (KCTC 1926). It is filed as cell-based, Salmonella typhimurium. Conditions: broth microdilution in MHB, 37 °C, 24 h, 100% inhibition of growth. How it is done: as §1, §2
The test system of experiment [3] is MDRPA (CCARM 2095) biofilm formation. In kind it is cell-based, multidrug-resistant Pseudomonas aeruginosa. The note with it: overnight 37 °C, crystal violet staining; for MBIC50: 50% inhibition; for MBIC90: 90% inhibition. The text has this:
Bacterial biofilms, comprising communities of bacterial cells encased in a matrix of polysaccharides and nucleic acids, present a significant challenge for conventional antibiotics due to the protective nature of this matrix. Biofilms can enhance bacterial resistance to antibiotics by up to 1000-fold compared to planktonic bacteria. To address this issue, there is an urgent need to discover and develop novel alternative therapeutic agents capable of effectively combating biofilm-forming bacteria. […] Our research specifically focused on evaluating the impact of BP100 and its analogs on biofilm formation and eradication using multidrug-resistant Pseudomonas aeruginosa (MDRPA), a common pathogen responsible for biofilm-mediated nosocomial infections. The adhered biomass was quantified using crystal violet staining, and the minimum biofilm inhibitory concentration (MBIC90) was determined as the lowest concentration required to inhibit 90% of biofilm growth relative to the positive control. […] Human cathelicidin LL-37 is well-documented for its potent antibiofilm properties.
The inhibitory activity of the peptides on biofilm formation was evaluated against multidrug-resistant Pseudomonas aeruginosa (MDRPA) (CCARM 2095) using a biofilm inhibition assay to determine the minimal biofilm inhibitory concentration (MBIC). Peptide solutions were serially diluted in sterile water and aliquoted (100 μL) into a 96-well Costar polypropylene plate (Corning Inc., Corning, NY, USA). An equal volume of MDRPA suspension in Mueller–Hinton Broth (MHB), adjusted to 1 × 10^6 CFU/mL, was added to each well, resulting in a final inoculum density of 5 × 10^5 CFU/mL. Following overnight incubation at 37 °C, bacterial growth was quantified by measuring the optical density (OD) at 595 nm. Planktonic cells were then discarded, and the attached biofilms were washed thrice with distilled water. Residual biofilms were stained with 0.1% crystal violet for five minutes, washed to remove non-adherent dye, and subsequently destained using 95% ethanol. The OD at 595 nm was measured again to assess the biofilm mass. Control wells contained untreated bacteria. The MBIC was defined as the lowest peptide concentration that inhibited any residual crystal violet staining or biofilm formation. All assays were conducted in triplicate to ensure reproducibility. This method allows for the quantitative assessment of the peptides’ ability to prevent biofilm formation, a critical virulence factor in many bacterial infections, particularly those caused by multidrug-resistant strains.

The next experiment has as its system MDRPA (CCARM 2095). In kind it is cell-based, multidrug-resistant Pseudomonas aeruginosa. The note with it: for MICA: MIC of peptide alone: checkerboard, 37 °C, 24 h; for FICI: fractional inhibitory concentration index: peptide with ciprofloxacin, [A]/MICA + [B]/MICB. The text has this:
Multidrug-resistant pathogens pose a significant challenge to both human and animal health. The steady decline in the discovery of new antibiotics has exacerbated the difficulty in developing effective therapies for infection control. Consequently, there is an urgent need for alternative strategies that can combat pathogens without inducing drug resistance. One such strategy involves the combination of different antimicrobial agents. The effects of antimicrobial peptides (AMPs) combined with conventional antibiotics often surpass those of individual drugs. […] The primary advantage of synergistic combinations lies in their ability to lower the concentration of each antimicrobial agent required for effective antibacterial activity. This approach offers several benefits, including reduced production costs, a decreased risk of adverse side effects, diminished toxicity to mammalian cells, and a lower likelihood of drug resistance development. In light of these potential advantages, we investigated the synergistic effects of BP100 and the five selected analogs in combination with ciprofloxacin against multidrug-resistant Pseudomonas aeruginosa (MDRPA) using a checkerboard synergy assay. Ciprofloxacin, an antibiotic belonging to the fluoroquinolone class, is commonly used to treat various bacterial infections, including urinary tract infections and pneumonia. It exerts a bactericidal effect by inhibiting bacterial DNA gyrase, thereby disrupting DNA replication and transcription […]. The fractional inhibitory concentration index (FICI) results for BP100 and its selected analogs, when paired with ciprofloxacin against MDRPA, are detailed in Table 5. […] Such combinations may offer a valuable approach to enhancing the efficacy of existing antibiotics and potentially mitigating the development of antimicrobial resistance.
The synergistic effects of peptide-antibiotic combinations against methicillin-resistant Staphylococcus aureus (MRSA; CCARM 3089) and multidrug-resistant Pseudomonas aeruginosa (MDRPA; CCARM 2095) were evaluated using the fractional inhibitory concentration index (FICI) method. Antibiotics and peptides were subjected to two-fold serial dilutions, mixed in equal ratios, and combined with a bacterial suspension adjusted to approximately 10^6 CFU/mL. The resulting mixtures were distributed into microplate wells and incubated at 37 °C with orbital shaking at 200 rpm for 24 h. Bacterial growth was monitored by measuring the optical density at 600 nm (OD600). The FICI was calculated using the broth microdilution checkerboard method, defined as the sum of the ratios of the minimum inhibitory concentrations (MICs) of each agent in combination to their individual MICs, according to the following equation: FICI = (MIC of antibiotic in combination/MIC of antibiotic alone) + (MIC of peptide in combination/MIC of peptide alone). The interpretation of FICI values was as follows: FICI ≤ 0.5 indicates synergy; 0.5 < FICI ≤ 1.0 indicates an additive effect; 1.0 < FICI ≤ 4.0 indicates indifference; and FICI > 4.0 indicates antagonism.

The test system of another experiment is E. coli (KCTC 1682). It is filed as cell-based, Escherichia coli. Conditions: 10% Human Serum.

For orientation: MIC means the lowest concentration found to suppress growth. Regarding `CC[C@H](C)[C@H](NC(=O)[C@H](CCCCN)NC(=O)[C@H](CCCCN)NC(=O)[C@H](Cc1ccccc1)NC(=O)[C@H](CC(C)C)NC(=O)[C@H](CCCCN)NC(=O)[C@@H](N)CCCCN)C(=O)N[C@@H](CC(C)C)C(=O)N[C@@H](CCCCN)C(=O)N[C@@H](Cc1ccc(O)cc1)C(=O)N[C@@H](CC(C)C)C(N)=O` [BP100], the “Minimal Inhibitory Concentration (MIC)” value in experiment [1] came out at 4 µM; in the experiment with VREF (ATCC 51559), 64 µM; in experiment [2] it was 4 µM. The compound also showed an MBIC50 in experiment [3] of 4 to 8 µM. Besides, in experiment [3], the MBIC90 is 8 µM. Also, the “MICA: MIC of peptide alone” value in the experiment with MDRPA (CCARM 2095) is 32 µg/mL. In addition, the “FICI: fractional inhibitory concentration index” value with MDRPA (CCARM 2095) is recorded as 0.375. For the same compound, in the experiment with E. coli (KCTC 1682), the MIC came to 16 µM (≈ 22.7 µg/mL).
In the case of KKLFKKIWKWL-NH2 [BP11], the “Minimal Inhibitory Concentration (MIC)” value in experiment [1] stood at 4 µM. Further, the “Minimal Inhibitory Concentration (MIC)” value in the experiment with VREF (ATCC 51559) came out at 16 µM. In addition, the “Minimal Inhibitory Concentration (MIC)” value in experiment [2] amounted to 2 µM. In experiment [3], this compound showed an MBIC50 of 4 to 8 µM and an MBIC90 of 8 µM. Moreover, in the experiment on MDRPA (CCARM 2095), the “MICA: MIC of peptide alone” value amounted to 8 µg/mL and the “FICI: fractional inhibitory concentration index” value is 0.3125. The MIC against E. coli (KCTC 1682) is 8 µM.
In the case of KKLWKKILKWL-NH2 [BP8], the “Minimal Inhibitory Concentration (MIC)” value in experiment [1] is 2 µM; in the experiment with VREF (ATCC 51559) it was 16 µM; in experiment [2], 4 µM. The MBIC50 in experiment [3] fell in the range of 4 to 8 µM. Also, in experiment [3], the MBIC90 came out at 8 µM. Further, in the experiment on MDRPA (CCARM 2095), the “MICA: MIC of peptide alone” value is 8 µg/mL. The MIC in the experiment with E. coli (KCTC 1682) turned out to be 4 µM.
As for KKLWKKIWKYW-NH2 [BP15], the figures for the “Minimal Inhibitory Concentration (MIC)” value (in experiment [1]; with VREF (ATCC 51559); in experiment [2]) were 4 µM, 64 µM and 4 µM, respectively. In experiment [3], this compound yielded an MBIC50 of 4 to 8 µM. The same compound returned an MBIC90 in experiment [3] of 8 µM.
KKLWKKWLKYW-NH2 [BP14]: the “Minimal Inhibitory Concentration (MIC)” value turned out to be 2 µM in experiment [1], 64 µM with VREF (ATCC 51559) and 8 µM in experiment [2]. This compound also returned an MBIC50 in experiment [3] of 8 to 16 µM. Besides, the MBIC90 in experiment [3] was 16 µM.
On to KKWFKKILKWL-NH2 [BP6], for which the “Minimal Inhibitory Concentration (MIC)” value in experiment [1] was 2 µM; in the experiment on VREF (ATCC 51559) it was 8 µM; in experiment [2] it was 4 µM. The compound further came in with an MBIC50 in experiment [3] of 4 to 8 µM. For the same compound, the MBIC90 in experiment [3] was found to be 8 µM. The “MICA: MIC of peptide alone” value with MDRPA (CCARM 2095) stood at 8 µg/mL. For the same compound, in the experiment with MDRPA (CCARM 2095), the “FICI: fractional inhibitory concentration index” value was determined as 0.375. The MIC against E. coli (KCTC 1682) came out at 4 µM.
Consider KKWFKKWLKWL-NH2 [BP13], for which the “Minimal Inhibitory Concentration (MIC)” value in experiment [1] came out at 8 µM. Moreover, in the experiment on VREF (ATCC 51559), the “Minimal Inhibitory Concentration (MIC)” value was 16 µM. Moreover, the “Minimal Inhibitory Concentration (MIC)” value in experiment [2] turned out to be 8 µM. In experiment [3], this compound had an MBIC50 of 4 to 8 µM and an MBIC90 of 8 µM. Also, in the experiment on MDRPA (CCARM 2095), the “MICA: MIC of peptide alone” value came to 8 µg/mL and the “FICI: fractional inhibitory concentration index” value is 0.2656. This compound also had an MIC with E. coli (KCTC 1682) of 16 µM.
Turning to KKWWKKILKYL-NH2 [BP5], the “Minimal Inhibitory Concentration (MIC)” value in experiment [1] is 1 µM. Moreover, in the experiment with VREF (ATCC 51559), the “Minimal Inhibitory Concentration (MIC)” value amounted to 8 µM. Also, the “Minimal Inhibitory Concentration (MIC)” value in experiment [2] came to 2 µM. In experiment [3], this compound showed an MBIC50 of 4 to 8 µM and an MBIC90 of 8 µM. For the same compound, in the experiment on MDRPA (CCARM 2095), the “MICA: MIC of peptide alone” value is 8 µg/mL and the “FICI: fractional inhibitory concentration index” value is on record as 0.3125. The same compound showed an MIC against E. coli (KCTC 1682) of 4 µM.
